Consider 25 molecules from ChEMBL document CHEMBL5329207, “Design, synthesis, and biological evaluation of diaminopyrimidine derivatives as novel focal adhesion kinase inhibitors” (RSC Med Chem, 2023).

For experiment [1], the target named is T1, Focal adhesion kinase 1 (Homo sapiens, UniProt Q05397). The experiment can be described thus: Inhibition of FAK (unknown origin) incubated for 50 mins in presence of substrate/ATP by HTRF assay.
In experiment [2] the test system is A549. The experiment can be described thus: cells. The note with it: Homo sapiens, A549, 72 h.
Description: Antiproliferative activity against human A549 cells assessed as inhibition of cell proliferation incubated for 72 hrs by MTT assay
The test system of experiment [3] is MDA-MB-231. The experiment can be described thus: cells. The note with it: Homo sapiens, MDA-MB-231, 72 h.
Description: Antiproliferative activity against human MDA-MB-231 cells assessed as inhibition of cell proliferation incubated for 72 hrs by MTT assay
Experiment [4] addresses T1, Focal adhesion kinase 1. The experiment can be described thus: Inhibition of GST-fused FAK (411 to 686 residues)(unknown origin) expressed in baculovirus expression system using poly(Glu:Tyr) as substrate incubated for 5 mins in presence of ATP by K-LISA screening assay.

T1 sequence (Q05397 whole entry): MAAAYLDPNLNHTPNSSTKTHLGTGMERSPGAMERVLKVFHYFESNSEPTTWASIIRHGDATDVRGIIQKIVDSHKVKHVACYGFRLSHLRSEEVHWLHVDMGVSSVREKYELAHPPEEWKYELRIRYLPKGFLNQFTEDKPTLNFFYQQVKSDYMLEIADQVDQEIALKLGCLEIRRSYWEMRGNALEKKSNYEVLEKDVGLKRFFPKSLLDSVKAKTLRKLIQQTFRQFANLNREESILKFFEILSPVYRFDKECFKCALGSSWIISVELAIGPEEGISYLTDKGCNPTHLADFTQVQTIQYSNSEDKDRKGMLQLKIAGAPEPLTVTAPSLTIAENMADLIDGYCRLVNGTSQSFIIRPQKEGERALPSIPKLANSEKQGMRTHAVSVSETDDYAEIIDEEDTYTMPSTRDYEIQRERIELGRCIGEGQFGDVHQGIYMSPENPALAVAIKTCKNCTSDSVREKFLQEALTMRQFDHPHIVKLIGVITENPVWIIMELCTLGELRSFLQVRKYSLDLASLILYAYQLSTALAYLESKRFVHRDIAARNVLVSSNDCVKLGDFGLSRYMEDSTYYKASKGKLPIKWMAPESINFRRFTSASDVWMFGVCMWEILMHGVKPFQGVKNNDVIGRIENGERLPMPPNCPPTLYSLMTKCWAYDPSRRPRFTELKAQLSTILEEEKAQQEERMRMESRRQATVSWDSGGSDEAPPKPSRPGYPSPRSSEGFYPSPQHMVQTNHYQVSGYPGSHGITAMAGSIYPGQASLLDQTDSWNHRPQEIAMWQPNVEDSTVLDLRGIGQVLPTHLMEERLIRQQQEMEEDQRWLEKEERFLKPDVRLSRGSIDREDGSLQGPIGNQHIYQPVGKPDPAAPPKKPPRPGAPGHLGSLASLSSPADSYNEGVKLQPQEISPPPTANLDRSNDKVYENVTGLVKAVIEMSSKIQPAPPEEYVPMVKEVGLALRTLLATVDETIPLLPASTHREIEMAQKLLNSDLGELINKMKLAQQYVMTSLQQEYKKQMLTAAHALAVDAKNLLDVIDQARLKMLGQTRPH

As for `CP(C)(=O)c1ccccc1Nc1nc(Nc2ccc(C(=O)N3CCC[C@H](N)C3)cc2)ncc1Cl`, the IC50 in experiment [1] came to 361 nM. Still for that read-out and setting: the same measure for `CN(C(=O)c1ccc(Nc2ncc(Cl)c(Nc3ccccc3P(C)(C)=O)n2)cc1)C1CCNCC1`: 119 nM; for `CNC1CCN(C(=O)c2ccc(Nc3ncc(Cl)c(Nc4ccccc4P(C)(C)=O)n3)cc2)CC1`: 413 nM.

With `CNC(=O)c1ccccc1Nc1nc(Nc2ccc(N3CCOCC3)cc2OC)ncc1Cl`, the IC50 in experiment [2] amounted to 4240 nM; in experiment [3], 1020 nM. Regarding `COc1cc(C(=O)NC2CCNCC2)ccc1Nc1ncc(Cl)c(Nc2ccccc2P(C)(C)=O)n1`, the IC50 turned out to be 1410 nM in experiment [2], 1340 nM in experiment [3] and 6.7 nM in experiment [1]. For the molecule `CP(C)(=O)c1ccccc1Nc1nc(Nc2ccc(C(=O)N3CCC(N4CCOCC4)CC3)cc2)ncc1Cl`, the IC50 in experiment [1] was found to be 149 nM.

For the molecule `CP(C)(=O)c1ccccc1Nc1nc(Nc2ccc(C(=O)N3CCOCC3)cc2)ncc1Cl`, the IC50 in experiment [1] was found to be 356 nM.

As to `CP(C)(=O)c1ccccc1Nc1nc(Nc2ccc(C(=O)NC3CCC(O)CC3)c(F)c2)ncc1Cl` (centres undefined), the results for the 50% inhibitory concentration (IC50) in experiment [2], in experiment [3] and in experiment [1] were 390 nM, 2480 nM and 15.2 nM, respectively. Turning to `Cc1cc(C(=O)NC2CCNCC2)ccc1Nc1ncc(Cl)c(Nc2ccccc2P(C)(C)=O)n1`, in experiment [1], the IC50 worked out at 28.8 nM. In the case of `Cc1cc(Nc2ncc(Cl)c(Nc3ccccc3P(C)(C)=O)n2)ccc1C(=O)NC1CCNCC1`, the IC50 in experiment [1] was 31.9 nM. As to `CP(C)(=O)c1ccccc1Nc1nc(Nc2ccc(C(=O)N[C@@H]3CCNC3)cc2)ncc1Cl`, the IC50 came to 2230 nM in experiment [2], 2120 nM in experiment [3] and 16.7 nM in experiment [1]. Consider `CP(C)(=O)c1ccccc1Nc1nc(Nc2ccc(C(=O)N3CCNCC3)cc2)ncc1Cl`, for which the IC50 in experiment [1] amounted to 328 nM.

As to `CP(C)(=O)c1ccccc1Nc1nc(Nc2ccc(C(=O)NC3CCC(O)CC3)cc2)ncc1Cl` (centres undefined), the IC50 was 110 nM in experiment [2], 860 nM in experiment [3] and 9.6 nM in experiment [1]. Regarding `CNC(=O)c1ccccc1Nc1nc(Nc2ccc(N3CCOCC3)cc2OC)ncc1C(F)(F)F`, the IC50 in experiment [4] is 1.5 nM.

As for `CP(C)(=O)c1ccccc1Nc1nc(Nc2ccc(C(=O)NC3CCNCC3)c(F)c2)ncc1Cl`, the IC50 stood at 2650 nM in experiment [2], 8690 nM in experiment [3] and 15.8 nM in experiment [1]. `CP(C)(=O)c1ccccc1Nc1nc(Nc2ccc(C(=O)N3CCC[C@@H](N)C3)cc2)ncc1Cl`: in experiment [1], the IC50 turned out to be 240 nM. Same read-out and setting: in the case of `CP(C)(=O)c1ccccc1Nc1nc(Nc2ccc(C(=O)NC3CCC(O)CC3)cc2F)ncc1Cl` (centres undefined) it was 17.5 nM. In the case of `COc1cc(C(=O)NC2CCC(O)CC2)ccc1Nc1ncc(Cl)c(Nc2ccccc2P(C)(C)=O)n1` (centres undefined), the IC50 turned out to be 1400 nM in experiment [2], 2490 nM in experiment [3] and 15.7 nM in experiment [1].

For `CP(C)(=O)c1ccccc1Nc1nc(Nc2ccc(C(=O)NCC3CCNCC3)cc2)ncc1Cl`, in experiment [1], the IC50 amounted to 19.7 nM.

For the molecule `Cc1cc(C(=O)NC2CCC(O)CC2)ccc1Nc1ncc(Cl)c(Nc2ccccc2P(C)(C)=O)n1` (centres undefined), in experiment [1], the IC50 came to 31.7 nM. Still for that read-out and setting: in the case of `CP(C)(=O)c1ccccc1Nc1nc(Nc2ccc(C(=O)NC3CCNCC3)cc2F)ncc1Cl` it was 27.5 nM. `CP(C)(=O)c1ccccc1Nc1nc(Nc2ccc(C(=O)N[C@H]3CCNC3)cc2)ncc1Cl`: the results for the IC50 in experiment [2], in experiment [3] and in experiment [1] were 2210 nM, 2350 nM and 14.3 nM, respectively.

Turning to `CN(C(=O)c1ccc(Nc2ncc(Cl)c(Nc3ccccc3P(C)(C)=O)n2)cc1)C1CCCNC1` (centres undefined), the half-maximal inhibitory concentration (IC50) in experiment [1] came out at 163 nM. For `CP(C)(=O)c1ccccc1Nc1nc(Nc2ccc(C(=O)NC3CCNCC3)cc2)ncc1Cl`, the IC50 in experiment [2] was determined as 2300 nM; in experiment [3], 1620 nM; in experiment [1], 8.7 nM. Regarding `Cc1cc(Nc2ncc(Cl)c(Nc3ccccc3P(C)(C)=O)n2)ccc1C(=O)NC1CCC(O)CC1` (centres undefined), the IC50 in experiment [2] stood at 520 nM; in experiment [3] it was 7530 nM; in experiment [1], 10.3 nM.

In general, IC50 refers to the concentration that gives 50% inhibition.
